Results as given in ChEMBL document CHEMBL3758122, “Multitarget opioid ligands in pain relief: New players in an old game” (Eur J Med Chem, 2016).
Starred links: 1 amine or outer side, 2 acyl side, 3 side chain; linkers in the order of their positions; H or OH if unused. Positions of bridges follow the written chain, without caps; N, C: chain ends. Non-standard residues stand in square brackets, D forms with d. Residues, ends and D or L forms follow the SMILES beside them. *: point of attachment. Dmt = Cc1cc(O)cc(C)c1C[C@H](N)C(=O)O; Tic = O=C(O)[C@@H]1Cc2ccccc2CN1; dTic = O=C(O)[C@H]1Cc2ccccc2CN1; NHBn = c1ccc(CN*)cc1; CH2 = C([*:1])[*:2]; NHPh = c1ccc(N*)cc1

Legend:
[1] = target: T1, Delta-type opioid receptor (Homo sapiens, UniProt P41143); assay: Binding affinity at delta opioid receptor (unknown origin)
T1 sequence (P41143 whole entry): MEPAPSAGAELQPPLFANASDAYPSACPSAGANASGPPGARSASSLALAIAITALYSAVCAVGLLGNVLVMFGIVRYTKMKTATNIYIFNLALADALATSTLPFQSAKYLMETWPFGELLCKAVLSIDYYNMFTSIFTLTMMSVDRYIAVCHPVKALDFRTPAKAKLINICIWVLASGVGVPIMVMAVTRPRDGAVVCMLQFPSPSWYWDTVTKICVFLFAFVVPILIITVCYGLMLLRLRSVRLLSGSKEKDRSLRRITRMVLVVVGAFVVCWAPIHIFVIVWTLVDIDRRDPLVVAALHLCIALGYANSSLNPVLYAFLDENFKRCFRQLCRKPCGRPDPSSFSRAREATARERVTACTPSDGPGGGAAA

[2] = target: T2, Mu-type opioid receptor (Homo sapiens, UniProt P35372); assay: Binding affinity at mu opioid receptor (unknown origin)
T2 sequence (P35372 whole entry): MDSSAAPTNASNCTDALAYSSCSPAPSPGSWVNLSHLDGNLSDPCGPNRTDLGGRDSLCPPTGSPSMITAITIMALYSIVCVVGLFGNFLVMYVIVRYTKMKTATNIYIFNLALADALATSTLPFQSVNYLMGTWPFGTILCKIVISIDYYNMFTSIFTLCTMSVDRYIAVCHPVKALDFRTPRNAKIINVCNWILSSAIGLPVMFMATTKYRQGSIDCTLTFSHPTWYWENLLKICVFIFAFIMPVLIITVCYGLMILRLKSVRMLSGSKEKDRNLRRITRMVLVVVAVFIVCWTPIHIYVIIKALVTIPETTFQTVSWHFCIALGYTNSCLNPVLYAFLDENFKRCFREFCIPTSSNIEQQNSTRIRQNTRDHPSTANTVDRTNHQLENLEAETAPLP

[3] = target: T3, Delta-type opioid receptor (Mus musculus, UniProt P32300); assay: Agonist activity at delta-opioid receptor in mouse vas deferens; type: tissue-based
T3 sequence (P32300 whole entry): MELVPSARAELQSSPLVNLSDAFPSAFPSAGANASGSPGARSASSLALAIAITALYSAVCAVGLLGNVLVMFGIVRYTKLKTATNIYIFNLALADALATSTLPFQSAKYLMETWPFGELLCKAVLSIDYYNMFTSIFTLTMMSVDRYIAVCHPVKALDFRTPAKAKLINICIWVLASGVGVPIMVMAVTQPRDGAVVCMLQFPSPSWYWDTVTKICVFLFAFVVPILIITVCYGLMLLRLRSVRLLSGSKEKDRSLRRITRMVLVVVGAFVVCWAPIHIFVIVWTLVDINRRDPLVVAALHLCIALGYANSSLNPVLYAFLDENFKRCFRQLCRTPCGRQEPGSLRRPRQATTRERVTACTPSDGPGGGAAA

[4] = target: T1, Delta-type opioid receptor; assay: Agonist activity at human delta-opioid receptor expressed in CHO cells by [35S]GTPgammaS binding assay; type: functional, cell-based
[5] = target: Delta-type opioid receptor (Rattus norvegicus, UniProt P33533); assay: (§1) Agonist activity at rat delta opioid receptor transfected in C6 cells by [35S]GTPgammaS binding assay; type: functional, cell-based
Delta-type opioid receptor (Rattus norvegicus, UniProt P33533), sequence (P33533 whole entry): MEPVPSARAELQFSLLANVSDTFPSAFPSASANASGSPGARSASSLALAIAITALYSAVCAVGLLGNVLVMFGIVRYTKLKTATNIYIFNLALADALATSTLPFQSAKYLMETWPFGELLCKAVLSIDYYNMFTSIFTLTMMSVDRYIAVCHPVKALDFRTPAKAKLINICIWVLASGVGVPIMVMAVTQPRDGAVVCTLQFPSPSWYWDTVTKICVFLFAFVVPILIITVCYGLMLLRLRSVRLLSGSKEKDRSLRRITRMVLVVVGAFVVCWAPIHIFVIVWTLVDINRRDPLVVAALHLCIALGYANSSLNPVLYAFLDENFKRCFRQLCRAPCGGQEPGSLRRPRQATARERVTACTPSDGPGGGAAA

[6] = target: T1, Delta-type opioid receptor; assay: Antagonist activity at human delta opioid receptor expressed in CHO cell membrane assessed as inhibition of DPDPE-induced [35S]-GTP-gammaS binding; type: cell membranes
[7] = target: T4, Kappa-type opioid receptor (Homo sapiens, UniProt P41145); assay: Binding affinity to kappa opioid receptor (unknown origin)
T4 sequence (P41145 whole entry): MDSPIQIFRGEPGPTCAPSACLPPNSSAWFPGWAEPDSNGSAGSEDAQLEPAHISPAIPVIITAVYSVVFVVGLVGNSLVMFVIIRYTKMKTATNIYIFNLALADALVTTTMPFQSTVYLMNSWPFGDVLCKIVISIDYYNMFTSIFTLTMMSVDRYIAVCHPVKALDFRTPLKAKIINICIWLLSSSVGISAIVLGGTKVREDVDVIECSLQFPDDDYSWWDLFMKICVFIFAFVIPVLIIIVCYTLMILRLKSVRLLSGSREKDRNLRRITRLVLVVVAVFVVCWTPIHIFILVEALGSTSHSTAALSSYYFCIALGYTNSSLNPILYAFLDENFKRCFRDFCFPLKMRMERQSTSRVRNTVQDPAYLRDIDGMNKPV

[8] = tested on: Mus musculus; assay: Antinociceptive activity in icv dosed mouse after 20 mins by tail flick test; type: functional
[9] = target: Mu-type opioid receptor (Rattus norvegicus, UniProt P33535); assay: (§2) Agonist activity at rat mu opioid receptor transfected in C6 cells by [35S]GTPgammaS binding assay; type: functional, cell-based
Mu-type opioid receptor (Rattus norvegicus, UniProt P33535), sequence (P33535 whole entry): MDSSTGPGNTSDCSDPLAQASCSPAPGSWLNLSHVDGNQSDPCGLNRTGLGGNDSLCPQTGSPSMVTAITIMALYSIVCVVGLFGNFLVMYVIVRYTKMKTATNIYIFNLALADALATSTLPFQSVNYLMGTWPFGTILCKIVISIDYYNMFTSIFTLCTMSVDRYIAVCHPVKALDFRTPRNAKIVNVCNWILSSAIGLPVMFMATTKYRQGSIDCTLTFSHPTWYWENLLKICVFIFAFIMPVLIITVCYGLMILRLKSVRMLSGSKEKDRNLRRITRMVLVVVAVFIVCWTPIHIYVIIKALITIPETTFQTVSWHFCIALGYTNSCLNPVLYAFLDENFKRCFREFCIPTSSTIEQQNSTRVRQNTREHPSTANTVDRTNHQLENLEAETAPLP

[10] = tested on: Rattus norvegicus; assay: Analgesic activity in sc dosed rat by tail flick test; type: functional
[11] = target: T3, Delta-type opioid receptor; assay: Antagonist activity at delta-opioid receptor in mouse vas deferens assessed as inhibition of DPDPE-induced inhibition of electrically induced twitches; type: tissue-based; details: read-out: pA2 (converted)
[12] = target: Mu-type opioid receptor (Cavia porcellus, UniProt P97266); assay: Agonist activity at mu-opioid receptor in guinea pig ileum assessed as inhibition of electrically induced twitches; type: tissue-based
Mu-type opioid receptor (Cavia porcellus, UniProt P97266), sequence (P97266 whole entry): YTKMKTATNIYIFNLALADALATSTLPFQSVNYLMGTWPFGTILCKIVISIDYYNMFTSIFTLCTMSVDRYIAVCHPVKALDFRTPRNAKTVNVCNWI

[13] = target: T1, Delta-type opioid receptor; assay: Displacement of [3H]DPN from human delta opioid receptor expressed in CHO cells by liquid scintillation counting; type: cell-based
[14] = target: T2, Mu-type opioid receptor; assay: Displacement of [3H]DPN from human mu opioid receptor expressed in CHO cells by liquid scintillation counting; type: cell-based
[15] = target: T2, Mu-type opioid receptor; assay: Agonist activity at mu opioid receptor (unknown origin) assessed as [35S]GTPgammaS binding by cell based assay; type: functional
[16] = target: T4, Kappa-type opioid receptor; assay: Agonist activity at kappa opioid receptor (unknown origin) assessed as [35S]GTPgammaS binding by cell based assay; type: functional
[17] = target: T1, Delta-type opioid receptor; assay: Partial agonist activity at delta opioid receptor (unknown origin) assessed as inhibition of adenylyl cyclase activity
[18] = target: Mu-type opioid receptor (Rattus norvegicus) (UniProt P33535); assay: as §2; type: functional, cell-based
Mu-type opioid receptor (Rattus norvegicus), sequence (P33535 whole entry): as the sequence (P33535 whole entry) above

[19] = target: Delta-type opioid receptor (Rattus norvegicus) (UniProt P33533); assay: as §1; type: functional, cell-based
Delta-type opioid receptor (Rattus norvegicus), sequence (P33533 whole entry): as the sequence (P33533 whole entry) above

[20] = target: T1, Delta-type opioid receptor; assay: Displacement of [3H]DPDPE from human delta opioid receptor expressed in CHO cells; type: cell-based
[21] = target: T2, Mu-type opioid receptor; assay: Agonist activity at human mu opioid receptor expressed in CHO cells by [35S]GTP-gammaS binding assay
[22] = target: T2, Mu-type opioid receptor; assay: Displacement of [3H]DAMGO from human mu opioid receptor expressed in CHO cell membrane; type: cell membranes
[23] = tested on: Mus musculus; assay: Antinociceptive activity in sc dosed Swiss Webster mouse measured after 30 mins by hot plate test; type: functional; details: 0.5 h
[24] = target: Kappa-type opioid receptor (Rattus norvegicus, UniProt P34975); assay: Displacement of [3H]DAMGO from kappa opioid receptor in albino Sprague-Dawley rat after 90 mins by liquid scintillation
Kappa-type opioid receptor (Rattus norvegicus, UniProt P34975), sequence (P34975 whole entry): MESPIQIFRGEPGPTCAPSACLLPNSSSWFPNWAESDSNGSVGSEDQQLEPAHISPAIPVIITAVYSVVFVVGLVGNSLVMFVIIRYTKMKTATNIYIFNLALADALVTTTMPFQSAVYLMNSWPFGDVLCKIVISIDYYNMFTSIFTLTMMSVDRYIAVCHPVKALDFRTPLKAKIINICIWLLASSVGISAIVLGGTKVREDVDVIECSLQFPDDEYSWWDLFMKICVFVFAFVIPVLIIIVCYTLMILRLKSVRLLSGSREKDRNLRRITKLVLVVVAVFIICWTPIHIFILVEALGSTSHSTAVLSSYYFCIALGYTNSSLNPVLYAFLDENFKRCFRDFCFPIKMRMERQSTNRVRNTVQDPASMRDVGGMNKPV

[25] = target: T1, Delta-type opioid receptor; assay: Antagonist activity at […] delta opioid receptor in CD1 mouse assessed as electrically induced twitches
[26] = target: T4, Kappa-type opioid receptor; assay: Displacement of [3H]U69,593 from human kappa opioid receptor expressed in CHO cell membrane; type: cell membranes
[27] = target: T2, Mu-type opioid receptor; assay: Partial agonist activity at mu opioid receptor (unknown origin) expressed in CHO cell membrane assessed as stimulation of [35S]GTP-gamma-S binding; type: cell membranes
[28] = tested on: Mus musculus; assay: Toxicity in sc dosed Kunming mouse assessed as sedation by rotarod test; type: organism-based; details: in vivo
[29] = tested on: Mus musculus; assay: Antinociceptive activity in sc dosed Kunming mouse measured after 30 mins by hot plate test; type: functional; details: 0.5 h
[30] = target: T2, Mu-type opioid receptor; assay: Displacement of [3H]D-Ala2,N-Me-Phe4,Gly5-ol]-Enkephalin from human mu opioid receptor expressed in CHO cell membrane; type: cell membranes
[31] = target: T1, Delta-type opioid receptor; assay: Displacement of [3H]naltrindole from human delta opioid receptor expressed in CHO cell membrane; type: cell membranes
[32] = target: T1, Delta-type opioid receptor; assay: Antagonist activity at human delta opioid receptor expressed in CHO cell membrane assessed as inhibition of […]-induced [35S]-GTP-gammaS binding; type: cell membranes
[33] = target: T1, Delta-type opioid receptor; assay: Partial agonist activity at delta opioid receptor (unknown origin) assessed as [35S]GTPgammaS binding by cell based assay
[34] = target: T4, Kappa-type opioid receptor; assay: Agonist activity at human kappa opioid receptor expressed in CHO cell membrane by [35S]GTP-gammaS binding assay
[35] = target: Delta-type opioid receptor (Mus musculus) (UniProt P32300); assay: Antagonist activity at delta-opioid receptor in mouse vas deferens; type: tissue-based
Delta-type opioid receptor (Mus musculus), sequence (P32300 whole entry): as the sequence (P32300 whole entry) above

Structure (SMILES): Cc1cc(O)cc(C)c1C[C@H](N)C(=O)N1Cc2ccccc2C[C@H]1C(=O)NCC(=O)Nc1ccccc1 (H-[Dmt]-[Tic]-Gly-NHPh)
- Ki [1]: 0.16 nM
- Ki [2]: 0.042 nM

Structure (SMILES): Cc1cc(O)cc(C)c1C[C@H](N)C(=O)N1Cc2ccccc2C[C@H]1C(=O)N[C@@H](Cc1ccccc1)C(=O)N[C@@H](Cc1ccccc1)C(N)=O (H-[Dmt][Tic]FF-NH2)
- Ki [2]: 1.19 nM

Structure (SMILES): Cc1cc(O)cc(C)c1C[C@H](N)C(=O)N1Cc2ccccc2C[C@@H]1C(=O)NCc1nc2ccccc2[nH]1
- EC50 [3]: 0.02 nM
- EC50 [4]: 0.0813 nM
- Ki [1]: 0.021 nM
- Ki [2]: 0.5 nM

Structure (SMILES): CCCC[C@@H]1NC(=O)[C@H](Cc2cccc3ccccc23)NC(=O)[C@H](NC(=O)[C@@H](N)Cc2ccc(O)cc2)CSSC[C@@H](C(N)=O)NC1=O
- EC50 [5]: 22 nM

Structure (SMILES): Cc1cc(O)cc(C)c1C[C@H](N)C(=O)N1Cc2ccccc2C[C@@H]1C(=O)NCC(=O)NCc1ccccc1 (H-[Dmt]-[dTic]-Gly-NHBn)
- pKb [6]: 9.81

Structure (SMILES): NC(=O)[C@@H]1CSCSC[C@@H](NC(=O)[C@@H](N)Cc2ccc(O)cc2)C(=O)N[C@@H](Cc2ccccc2)C(=O)N[C@@H](Cc2ccccc2)C(=O)N1 (H-Y[dC]FFC-NH2; linker 2-5 via CH2)
- Ki [1]: 1.8 nM
- Ki [2]: 0.016 nM

Structure (SMILES): O=C1c2ccc(O)cc2[C@@]23CCCC[C@H]2[C@@H]1N(CC1CCCO1)CC3 (stereo not given in full)
- Ki [1]: 1 nM
- Ki [2]: 0.38 nM
- Ki [7]: 0.18 nM

Structure (SMILES): O=C(CCCCCCCCC(=O)Oc1ccc2c(c1)[C@@]13CCCC[C@H]1[C@@H](C2)N(CC1CCC1)CC3)Oc1ccc2c(c1)[C@@]13CCCC[C@H]1[C@@H](C2)N(CC1CCC1)CC3
- ED50 [8]: 3 nmol

Structure (SMILES): CCCC[C@@H]1NC(=O)[C@H](Cc2cccc3ccccc23)NC(=O)[C@H](NC(=O)[C@@H](N)Cc2ccc(O)cc2)CSSC[C@@H](C(=O)O)NC1=O
- EC50 [9]: 5.1 nM
- EC50 [5]: 22 nM

Structure (SMILES): C[C@H]1[C@H]2Cc3ccc(O)cc3[C@]1(C)CCN2CCC(=O)Nc1ccccc1
- Ki [1]: 29 nM
- Ki [2]: 0.83 nM
- ED50 [10]: 2.03 mg/kg

Structure (SMILES): Cc1cc(O)cc(C)c1C[C@H](N)C(=O)N1Cc2ccccc2C[C@H]1C(=O)NCC(=O)NCc1ccccc1 (H-[Dmt]-[Tic]-Gly-NHBn)
- EC50 [3]: 2.57 nM
- Kb [11]: 0.708 nM
- EC50 [12]: 31.6 nM
- Ki [1]: 0.16 nM
- Ki [13]: 0.151 nM
- Ki [14]: 16.2 nM
- Ki [2]: 0.031 nM

Structure (SMILES): Oc1ccc2c(c1)[C@@]13CCCC[C@H]1[C@@H](C2)N(CC1CCC1)CC3 [BUTORPHAN]
- Ki [7]: 0.073 nM

Structure (SMILES): CO[C@@]12CCC(=O)[C@]3(C)Oc4c(O)ccc5c4[C@@]31CCN(C)[C@@H]2C5
- Ki [1]: 13.3 nM
- Ki [2]: 0.01 nM
- Ki [7]: 25.2 nM

Structure (SMILES): NC(=O)[C@H]1CSCSC[C@H](NC(=O)[C@@H](N)Cc2ccc(O)cc2)C(=O)N[C@@H](Cc2ccccc2)C(=O)N[C@@H](Cc2ccc3ccccc3c2)C(=O)N1
- Ki [1]: 0.48 nM
- Ki [2]: 0.47 nM
- Ki [7]: 1.3 nM
- Emax [15]: 99%
- Emax [16]: 89%
- EC50 [17]: 36 nM

Structure (SMILES): CCCC[C@@H]1NC(=O)[C@H](Cc2cccc3ccccc23)NC(=O)[C@@H](NC(=O)[C@@H](N)Cc2ccc(O)cc2)CSSC[C@H](C(=O)O)NC1=O
- Emax [18]: 100%
- Emax [19]: 100%

Structure (SMILES): Cc1cc(O)cc(C)c1C[C@H](N)C(=O)N1Cc2ccccc2C[C@H]1CN[C@@H](Cc1ccccc1)C(=O)N[C@@H](Cc1ccccc1)C(N)=O
- Ki [1]: 0.44 nM
- Ki [2]: 0.94 nM

Structure (SMILES): CN1CC[C@]23c4c5ccc(O)c4O[C@@]2(CO)C(=O)CC[C@@]3(O)[C@H]1C5
- Ki [20]: 208 nM
- EC50 [21]: 35 nM
- Ki [22]: 3.2 nM
- ED50 [23]: 4.3 mg/kg

Structure (SMILES): C=CCN1C[C@H](C)N([C@@H](c2cccc(O)c2)c2cccc(C(=O)N(C)c3cccc(F)c3)c2)C[C@H]1C
- IC50 [12]: 1 nM
- Ki [24]: 0.46 nM
- IC50 [25]: 3.4 nM

Structure (SMILES): Nc1nc2cc3c(cc2s1)CC1[C@@H]2CCCC[C@]32CCN1CC1CC1
- Ki [26]: 0.049 nM
- EC50 [27]: 73 nM
- ED50 [28]: 1.94 mg/kg
- ED50 [29]: 1.46 mg/kg
- Ki [30]: 1.5 nM

Structure (SMILES): Cc1cc(O)cc(C)c1C[C@H](N)C(=O)N1Cc2ccccc2C[C@@H]1C(=O)NCC(=O)N(c1ccccc1)c1ccccc1
- EC50 [21]: 4.8 nM
- Ki [22]: 1.71 nM
- Ki [31]: 0.94 nM
- IC50 [32]: 8.3 nM

Structure (SMILES): CN1CC[C@]23c4c5ccc(O)c4O[C@@]2(C)c2[nH]c4ccccc4c2C[C@@]3(CCCc2ccccc2)[C@H]1C5
- Ki [1]: 1.95 nM
- Ki [2]: 10.2 nM
- EC50 [15]: 45.1 nM
- EC50 [33]: 0.87 nM

Structure (SMILES): CN1CC[C@]23c4c5ccc(O)c4O[C@H]2[C@@H](O)C=C[C@H]3[C@H]1C5 [MORPHINE]
- ED50 [10]: 2.7 mg/kg

Structure (SMILES): O=C(/C=C/C(=O)Oc1ccc2c(c1)[C@@]13CCCC[C@H]1[C@@H](C2)N(CC1CCC1)CC3)Oc1ccc2c(c1)[C@@]13CCCC[C@H]1[C@@H](C2)N(CC1CCC1)CC3
- EC50 [34]: 4.3 nM
- ED50 [8]: 0.27 nmol

Structure (SMILES): Cc1cc(O)cc(C)c1C[C@H](N)C(=O)N1Cc2ccccc2C[C@H]1C(=O)NCC(=O)N1CCc2ccccc2C1
- EC50 ([21]; cho): 22 nM
- Ki ([22]; cho): 3.3 nM
- Ki ([31]; cho): 0.75 nM
- IC50 ([32]; cho): 2.3 nM

Structure (SMILES): N[C@@H](Cc1ccc(O)cc1)C(=O)N1Cc2ccccc2CC1CN[C@@H](Cc1ccccc1)C(=O)NC(CC1CCCCC1)C(=O)O (stereo not given in full)
- Ke [35]: 0.175 nM
- Ki [1]: 0.259 nM
- Ki [2]: 1050 nM

Structure (SMILES): CCCC[C@@H]1NC(=O)[C@H](Cc2cccc3ccccc23)NC(=O)[C@@H](NC(=O)[C@@H](N)Cc2ccc(O)cc2)CSSC[C@H](C(N)=O)NC1=O
- Emax [18]: 100%
- Emax [19]: 100%

Structure (SMILES): NC(=O)[C@@H]1CSSC[C@@H](NC(=O)[C@@H](N)Cc2ccc(O)cc2)C(=O)N[C@@H](Cc2ccccc2)C(=O)N[C@@H](Cc2ccccc2)C(=O)N1 (H-Y[dC]FFC-NH2; disulfide 2-5)
- Emax [18]: 77%
- Emax [19]: 69%
